Experimental data published in patent US20150246946A1, “PEPTIDES AND METHODS FOR TREATING CANCER” (AGENCY FOR SCIENCE, TECHNOLOGY AND RESEARCH, priority 2012, published 2015).
Bridges are numbered along the chain shown (N, C = ends). [ ]: non-standard residue; d: D form. R8 = C=CCCCCCC[C@@](C)(N)C(=O)O; S5 = C=CCCC[C@](C)(N)C(=O)O; FAM = carboxyfluorescein

How the values were obtained:
HCT-116 p53+/+ cells [1] = assay: HCT-116 Western blot analysis; assay type: cell-based; settings: 6 hours, with or without fetal calf serum, FIG. 2d
Protocol: Cells were treated with various compounds/vehicle controls at the time points and concentrations indicated also in acoy's media with 10% FBS. Cells were rinsed with PBS and then harvested in 200 μl of 1× NuPAGE LDS sample buffer supplied by Invitrogen (NP0008). Samples were then sonicated, heated to 90° C. for 5 mins, sonicated twice for 10 s and centrifuged at 13, 000 rpm for 5 minutes. Protein concentrations were measured by BCA assay (Pierce). Western blots were then performed using antibodies against actin (AC-15, Sigma) as a loading control, p21 (118 mouse monoclonal), Mdm2 (4B2 mouse monoclonal) and p53 (DO-1 mouse monoclonal).

[2] = target: T1, interaction of p53 with Mdm2 in living BHK cells (Homo sapiens, UniProt Q00987); assay: F2H co-localization assay p53:Mdm2; assay type: cell-based; settings: 0 to 50 μM
T1 construct: the prey is a fusion of either Mdm2 (7-134) or Mdm4 (1-129) with RFP; host or cells: transgenic BHK cells with lac operator repeats
T1 sequence (Q00987 7-134): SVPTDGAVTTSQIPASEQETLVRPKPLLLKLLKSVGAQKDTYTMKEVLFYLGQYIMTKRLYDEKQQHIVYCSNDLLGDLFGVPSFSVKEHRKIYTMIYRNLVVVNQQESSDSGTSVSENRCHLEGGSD

[3] = tested on: thymocytes from p53 wild-type mice; assay: cell viability in mouse thymocytes, p53 wild-type; assay type: cell-based; settings: p53 wild-type vs p53 deficient mice, 24 hours, annexin V/PI
Protocol: Thymocytes were isolated from wild-type and p53^+/−mice (age 4-9 weeks) and kept in a PBS/FCS (2%) solution (ref). Cells were plated at a density of 1×10^6 per well in 24-well plates in medium [DMEM/Hepes (25 mM, pH 7.2), 5% FCS, penicillin/streptomycin, glutamine] and incubated at 37° C. with 2% C02. […] Cell were then analysed for viability using this procedure, cells were washed with cold PBS, and stained with FITC-labeled annexin V antibody (PharMingen) and PI (Sigma). The relative amounts of apoptotic cells were determined by binding of annexin V and subsequent fluorescence-activated cell sorter analysis. All values were normalized to the number of cells remaining viable in vehicle (1% DMSO) treated cultures derived from the same animal stained simultaneously. Data are representatives of n=4 independent experiments.

[4] = target: T2, interaction of p53 with Mdm4 in living BHK cells (Homo sapiens, UniProt O15151); assay: F2H co-localization assay p53:Mdm4; assay type: cell-based; settings: 0 to 50 μM
T2 construct: Mdm4 (1-129) with RFP; host or cells: transgenic BHK cells with lac operator repeats
T2 sequence (O15151 1-129): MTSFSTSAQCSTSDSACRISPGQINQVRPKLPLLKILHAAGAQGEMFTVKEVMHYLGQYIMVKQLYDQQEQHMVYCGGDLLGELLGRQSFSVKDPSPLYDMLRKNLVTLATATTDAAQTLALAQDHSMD

SJSA-1 cell line = assay: caspase 3/7 activity in SJSA-1 cell line; settings: SJSA-1 cells, titration
Mdm2 (1-125) [5] = target: T3, Mdm2 (1-125) (Homo sapiens, UniProt Q00987); assay: competitive fluorescence polarization/anisotropy, apparent Kd against Mdm2; assay type: binding
T3 construct: Mdm2 (1-125) and Mdm4 (1-125) were ligated into the GST fusion expression vector pGEX-6P-1; GST (N, cleaved yes); made in house; host or cells: E. coli BL21 DE3
T3 sequence (Q00987 1-125): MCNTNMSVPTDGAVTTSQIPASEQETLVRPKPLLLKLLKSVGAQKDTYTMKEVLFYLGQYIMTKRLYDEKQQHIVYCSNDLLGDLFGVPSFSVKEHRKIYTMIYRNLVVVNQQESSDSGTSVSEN
Protocol: (§1) The cells expressing the GST fusion constructs were grown in LB medium at 37° C. to an OD600 of ˜0.6 and induction was started with 1 mM IPTG and carried out overnight at room temperature. Cells were harvested by centrifugation and the cell pellets were re-suspended in 50 mM Tris pH 8.0, 10% sucrose and were then sonicated. The sonicated sample was centrifuged for 60 mins at 17,000 g at 4° C. […] The column was then further washed by 6 volumes of wash buffer. Mdm2 and Mdm4 were then purified from the column by cleavage with Precission (GE Lifesciences) protease. 10 units of precission protease, in one column volume of PBS with 1 mM DTT buffer, were injected onto the column. The cleavage reaction was allowed to proceed overnight at 4° C. The cleaved protein was then eluted of the column with wash buffer. Protein fractions were analyzed with SDS page gel and concentrated using a Centricon (3.5 kDa MWCO) concentrator, Millipore. Mdm2 and Mdm4 protein samples were then dialyzed into a buffer solution containing 20 mM Bis-Tris, pH 6.5, 0.05M NaCl with 1 mM DTT and loaded onto a monoS column pre-equilibrated in buffer A (20 mM Bis-Tris, pH 6.5, 1 mM DTT). The column was then washed in 6 column volumes of buffer A and bound protein was eluted with a linear gradient of 1M NaCL over 25 column volumes. Protein fractions were analyzed with SDS page gel and concentrated using a Centricon (3.5 kDa MWCO) concentrator from Millipore.
(§2) Apparent Kd values were determined for a variety of molecules via competitive fluorescence anisotropy experiments. […] The competing molecules were then titrated against complex of the FAM labelled peptide and protein. Apparent Kd values were determined by fitting the experimental data to the equations shown below:
(§3) [L]st and [L]t denote labelled ligand and total unlabelled ligand input concentrations, respectively. Kd2 is the dissociation constant of the interaction between the unlabelled ligand and the protein. In all competitive types of experiments, it is assumed that [P]t>[L]st, otherwise considerable amounts of free labelled ligand would always be present and would interfere with measurements. […] The FAM-labelled peptide were dissolved in DMSO at 1 mM and diluted into experimental buffer. Readings were carried out with a Envision Multilabel Reader (PerkinElmer). […] All titrations were carried out in triplicate. Curve-fitting was carried out using Prism 4.0 (GraphPad).

HCT-116 p53+/+ cells [6] = assay: cell viability (CellTiter-Glo), HCT-116 p53+/+; assay type: cell-based; settings: 24 hours
From the text: (§4) Data was normalized to vehicle-treated controls.

Mdm4 (1-125) [7] = target: T4, Mdm4 (1-125) (Homo sapiens, UniProt O15151); assay: competitive fluorescence polarization/anisotropy, apparent Kd against Mdm4; assay type: binding
T4 construct: Mdm4 (1-125) were ligated into the GST fusion expression vector pGEX-6P-1; GST (N, cleaved yes); made in house; host or cells: E. coli BL21 DE3
T4 sequence (O15151 1-125): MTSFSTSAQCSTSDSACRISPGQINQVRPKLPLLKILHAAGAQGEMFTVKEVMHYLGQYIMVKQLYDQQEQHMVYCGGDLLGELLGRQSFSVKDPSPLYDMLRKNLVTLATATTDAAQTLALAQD
Protocol: as §1, §2, §3

HCT-116 p53−/− cells [8] = assay: cell viability (CellTiter-Glo), HCT-116 p53−/−; assay type: cell-based; settings: 24 hours
From the text: as §4

p53 null thymocytes = assay: cell viability in mouse thymocytes, p53 null; assay type: cell-based, mice; settings: high doses, 24 hours, annexin V/PI
HCT-116 p53+/+ cells [9] = assay: Caspase-Glo 3/7 assay, HCT-116 p53+/+; assay type: cell-based; settings: 24 hours
From the text: as §4

HCT-116 p53−/− cells [10] = assay: Caspase-Glo 3/7 assay, HCT-116 p53−/−; assay type: cell-based; settings: 24 hours
From the text: as §4

[11] = tested on: p53 responsive LacZ reporter gene in T22 cell line; assay: T22 p53 β-galactosidase based reporter assay; assay type: cell-based, murine; settings: for p53 transcriptional activity in T22 p53 reporter assay: 18 hours, DMEM with 10% FBS
Protocol: T22 cells, which were stably transfected with a p53 responsive […] reporter, were seeded into 96-well plate at a cell density of 8000 cells per well. […] Measurements were carried out using a Safire II multiplate reader (TECAN). Experiments were carried out independently twice.

HCT116 p53+/+ cells = assay: cell cycle analysis (propidium iodide flow cytometry); assay type: cell-based; settings: 24 hours; for cell cycle distribution at high concentrations: high concentration (FIG. 5); for cell cycle distribution at low concentrations: low concentration (FIG. 4c)
Protocol: Three hundred fifty thousand cells were then seeded per well in 6-well plates containing incubated overnight. […] A 1% DMSO vehicle control treatment was also carried out. Cells were washed with PBS and then detached from the plate surface by trypsinisation. […] Cells were spun down and resuspended with PI-staining solution containing RNase A. Cells were analyzed using an LSR II (Becton Dickinson).

Mdm4 (1-125) [12] = target: T5, Mdm4 (1-125) (human, UniProt O15151 1-125); assay: apparent Kd, competitive fluorescence polarization; displacement of FAM-…-NH2 from Mdm4 (1-125)
T5 construct: range 1-125; also called MDMX; Hdm4
T5 sequence (looked up): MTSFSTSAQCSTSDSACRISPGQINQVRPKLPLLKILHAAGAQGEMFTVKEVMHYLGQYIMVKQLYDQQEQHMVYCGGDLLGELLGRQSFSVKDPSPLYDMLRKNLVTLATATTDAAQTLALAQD

Mdm2 (1-125) [13] = target: T6, Mdm2 (1-125) (human, UniProt Q00987 1-125); assay: apparent Kd, competitive fluorescence polarization; displacement of FAM-…-NH2 from Mdm2 (1-125)
T6 construct: range 1-125; also called Hdm2
T6 sequence (Q00987 1-125 limits assumed): as the sequence (Q00987 1-125) above

Mdm4 (1-125) [14] = target: T5, Mdm4 (1-125); assay: competitive fluorescence polarization
Mdm2 (1-125) [15] = target: T6, Mdm2 (1-125); assay: competitive fluorescence polarization
Mdm4 (1-125) [16] = target: T5, Mdm4 (1-125); assay: direct fluorescence anisotropy titration of Mdm4 (1-125) against 50 nM labelled peptide, 1:1 model

Molecule	effect of serum on activity (HCT-116 p53+/+ cells [1])	disruption of p53 interaction with Mdm2 (F2H) [2]	cell death in thymocytes [3]	induction of caspase 3/7 activity (SJSA-1 cell line)	cell viability (HCT-116 p53+/+ cells [6])	cell viability (HCT-116 p53−/− cells [8])	apoptosis in p53 null thymocytes (p53 null thymocytes)	caspase 3/7 activity (HCT-116 p53+/+ cells [9])	caspase 3/7 activity (HCT-116 p53−/− cells [10])	p53 transcriptional activity in T22 p53 reporter assay [11]	cell cycle distribution at high concentrations (HCT116 p53+/+ cells)	cell cycle distribution at low concentrations (HCT116 p53+/+ cells)	other results
CC(=O)N[C@H](C(=O)N[C@@H](CO)C(=O)N[C@@H](Cc1ccccc1)C(=O)N[C@]1(C)CCCCCCC=CCCC[C@@](C)(C(N)=O)NC(=O)[C@H](CC(C)C)NC(=O)[C@H](CC(C)C)NC(=O)[C@H](C)NC(=O)[C@H](Cc2c[nH]c3ccccc23)NC(=O)[C@H](Cc2ccc(O)cc2)NC(=O)[C@H](CCC(=O)O)NC1=O)[C@@H](C)O [sMTide-02, Ac-^1TSFXEYWALLX^11-NH2]	significantly improved potency in the absence of serum	dissociate Mdm2 from p53	induced cell death in a p53-dependent manner	induced caspase 3/7 activity at substantially higher concentrations than nutlin	no significant decrease in the viability	no significant decrease in the viability	did not	negligible caspase 3/7 activity	negligible caspase 3/7 activity	strongest p53 transcriptional response ever seen in this assay	G2 arrest	G2 arrest	disruption of p53 interaction with Mdm4 (F2H) [4]: greater potency against Mdm4; increase in Kd against Mdm2 in comparison to unstapled counterpart (Mdm2 (1-125) [5]; stapled vs unstapled peptide): negligible increase; Kd (Mdm4 (1-125) [7]): 45.7 ± 7.65 nM; increase in Kd against Mdm4 in comparison to unstapled counterpart (Mdm4 (1-125) [7]; stapled vs unstapled peptide): 2 fold; effect of PGP inhibitor PSC-883 on p53 response in the reporter assay ([11]; with 20 μM PSC-883 vs without): significantly improved the sensitivity of the p53 response
CC(=O)N[C@H](C(=O)N[C@@H](CO)C(=O)N[C@@H](Cc1ccccc1)C(=O)N[C@]1(C)CCCCCCC=CCCC[C@@](C)(C(N)=O)NC(=O)[C@H](CC(C)C)NC(=O)[C@H](CC(C)C)NC(=O)[C@H](C)NC(=O)[C@H](Cc2c[nH]c3cc(Cl)ccc23)NC(=O)[C@H](Cc2ccc(O)cc2)NC(=O)[C@H](CCC(=O)O)NC1=O)[C@@H](C)O [sMTide-02A, Ac-^1TSFXEY(L-6-Cl)WALLX^11-NH2]	significantly improved potency in the absence of serum	dissociate Mdm2 from p53	induced cell death in a p53-dependent manner	induced caspase 3/7 activity at substantially higher concentrations than nutlin	no significant decrease in the viability	no significant decrease in the viability	to a certain extent	negligible caspase 3/7 activity	negligible caspase 3/7 activity	much higher fold induction of p53 transcriptional activity than the unmodified sMTide-02	G2 arrest	G2 arrest	preference between Mdm2 and Mdm4 in binding (Mdm2 (1-125) [5]; comparison of apparent Kds): preference for Mdm2 over Mdm4; Mdm4 Kd (Mdm4 (1-125) [7]; apparent Kd, competitive fluorescence polarization, Mdm4 75 nM, FAM peptide 50 nM): significantly attenuated
Ac-TSF[R8]EYWNLL[S5]-NH2 (staple 4-11; SMILES CC(=O)N[C@H](C(=O)N[C@@H](CO)C(=O)N[C@@H](Cc1ccccc1)C(=O)N[C@]1(C)CCCCCCC=CCCC[C@@](C)(C(N)=O)NC(=O)[C@H](CC(C)C)NC(=O)[C@H](CC(C)C)NC(=O)[C@H](CC(N)=O)NC(=O)[C@H](Cc2c[nH]c3ccccc23)NC(=O)[C@H](Cc2ccc(O)cc2)NC(=O)[C@H](CCC(=O)O)NC1=O)[C@@H](C)O, Stapled derivative of MTide-01; also called Ac-TSFXEYWNLLX-NH2) [sMTide-01]													Kd (Mdm4 (1-125) [12]): 118 nM; Kd (Mdm2 (1-125) [13]): 87 nM; fold increase in Kd against its unstapled counterpart (MTide-01) (Mdm4 (1-125) [14]): ~4 fold; fold increase in Kd against its unstapled counterpart (MTide-01) (Mdm2 (1-125) [15]): ~2 fold
{FAM}-RFMDYWEGL-NH2 (Labelled probe of the fluorescence anisotropy assays; also called FAM labeled probe) [carboxyfluorescein (FAM) labelled 12-1 peptide (FAM-RFMDYWEGL-NH2)]													Kd (Mdm4 (1-125) [16]): 4.2 nM
